Entries after “also recorded” stand apart in the source; their conditions may differ.
Assay: Toxicokinetics of racemic ketoconazole in another 28-day dog study (b)
Settings: dogs; for Cmax / AUC(0-t) / concentration at 0 h / concentration at 1 h / concentration at 2 h / concentration at 4 h / concentration at 8 h / concentration at 12 h / Tmax: beagle, dog, plasma, po; for AUC(0-t): AUC(0-12), footnote: AUC data is for 0-24 h; for concentration at 0 h / concentration at 1 h / concentration at 2 h / concentration at 4 h / concentration at 8 h / concentration at 12 h: Drug concentration in plasma; for Tmax: Tmax Range
Excerpt: Two groups of three male and three female dogs per group were studied.
Toxicokinetic samples were collected on Day 1 and during Weeks 2 and 4. […] For the following Table: *Days of treatment.

[1] = female, 10 mg/kg, study b, powder, 10 mg/kg oral, day 1, F
[2] = female, 10 mg/kg, study b, powder, 10 mg/kg oral, day 28, F
[3] = female, 40 mg/kg, study b, powder, 40 mg/kg oral, day 1, F
[4] = female, 40 mg/kg, study b, powder, dose and days not printed in the row (40 mg/kg, day 28), F
[5] = female, 40 mg/kg, study b, powder, 40 mg/kg oral, day 28, F
[6] = male, 10 mg/kg, study b, powder, 10 mg/kg oral, day 1, M
[7] = male, 10 mg/kg, study b, powder, 10 mg/kg oral, day 28, M
[8] = male, 40 mg/kg, study b, powder, 40 mg/kg oral, day 1, M
[9] = male, 40 mg/kg, study b, powder, dose and days not printed in the row (40 mg/kg, day 28), M
[10] = male, 40 mg/kg, study b, powder, 40 mg/kg oral, day 28, M

Compound: CC(=O)N1CCN(c2ccc(OCC3COC(Cn4ccnc4)(c4ccc(Cl)cc4Cl)O3)cc2)CC1 (racemic) [Racemic ketoconazole, 1-acetyl-4-[4-[[2-(2,4-dichlorophenyl)-2-[(1H-imidazol-1-yl)-methyl]-1,3-dioxolan-4-yl]methoxy]phenyl]piperazine]
- Cmax (both, 10 mg/kg, 10 mg/kg, day 28): 7520 to 9200 ng/mL
- Cmax (both, 40 mg/kg, 40 mg/kg, day 28): 42800 to 46800 ng/mL
- change of exposure (AUC, Cmax) with repeat dosing, day 28 vs day 1 (daily oral dosing for 28 days): AUC determined after a single dose was significantly reduced in comparison to the AUC determined after 28 daily doses; also recorded: significant increase between day 1 and day 28
- AUC(0-t) [1]: 6730 ng·h/mL
- AUC(0-t) [2]: 33100 ng·h/mL
- Cmax [1]: 1580 ng/mL
- Cmax [2]: 7520 ng/mL
- concentration at 0 h [1]: < 250 ng/mL
- concentration at 1 h [1]: 1300 ng/mL
- concentration at 2 h [1]: 1230 ng/mL
- concentration at 4 h [1]: 590 ng/mL
- concentration at 8 h [1]: < 250 ng/mL
- concentration at 12 h [1]: < 250 ng/mL
- concentration at 0 h [2]: < 250 ng/mL
- concentration at 1 h [2]: 7280 ng/mL
- concentration at 2 h [2]: 7210 ng/mL
- concentration at 4 h [2]: 4390 ng/mL
- concentration at 8 h [2]: 850 ng/mL
- concentration at 12 h [2]: < 250 ng/mL
- Tmax [1]: 1 to 8 h
- Tmax [2]: 1 to 2 h
- AUC(0-t) [3]: 42900 ng·h/mL
- AUC(0-t) [4]: 639000 ng·h/mL
- Cmax [3]: 6230 ng/mL
- Cmax [4]: 42800 ng/mL
- concentration at 0 h [3]: < 250 ng/mL
- concentration at 1 h [3]: 5650 ng/mL
- concentration at 2 h [3]: 5760 ng/mL
- concentration at 4 h [3]: 3300 ng/mL
- concentration at 8 h [3]: 1840 ng/mL
- concentration at 12 h [3]: 1550 ng/mL
- concentration at 0 h [5]: 12800 ng/mL
- concentration at 1 h [5]: 12300 ng/mL
- concentration at 2 h [5]: 31600 ng/mL
- concentration at 4 h [5]: 38600 ng/mL
- concentration at 8 h [5]: 40400 ng/mL
- concentration at 12 h [5]: 29900 ng/mL
- Tmax [3]: 2 to 12 h
- Tmax [4]: 4 to 8 h
- AUC(0-t) [6]: 9010 ng·h/mL
- AUC(0-t) [7]: 44200 ng·h/mL
- Cmax [6]: 1430 ng/mL
- Cmax [7]: 9200 ng/mL
- concentration at 0 h [6]: < 250 ng/mL
- concentration at 1 h [6]: 380 ng/mL
- concentration at 2 h [6]: 620 ng/mL
- concentration at 4 h [6]: 1180 ng/mL
- concentration at 8 h [6]: 330 ng/mL
- concentration at 12 h [6]: < 250 ng/mL
- concentration at 0 h [7]: < 250 ng/mL
- concentration at 1 h [7]: 7530 ng/mL
- concentration at 2 h [7]: 8630 ng/mL
- concentration at 4 h [7]: 6200 ng/mL
- concentration at 8 h [7]: 1440 ng/mL
- concentration at 12 h [7]: 430 ng/mL
- Tmax [6]: 2 to 4 h
- Tmax [7]: 1 to 2 h
- AUC(0-t) [8]: 180000 ng·h/mL
- AUC(0-t) [9]: 542000 ng·h/mL
- Cmax [8]: 23300 ng/mL
- Cmax [9]: 46800 ng/mL
- concentration at 0 h [8]: < 250 ng/mL
- concentration at 1 h [8]: 10300 ng/mL
- concentration at 2 h [8]: 14600 ng/mL
- concentration at 4 h [8]: 23100 ng/mL
- concentration at 8 h [8]: 10100 ng/mL
- concentration at 12 h [8]: 6700 ng/mL
- concentration at 0 h [10]: 3970 ng/mL
- concentration at 1 h [10]: 11900 ng/mL
- concentration at 2 h [10]: 24600 ng/mL
- concentration at 4 h [10]: 32700 ng/mL
- concentration at 8 h [10]: 46800 ng/mL
- concentration at 12 h [10]: 28300 ng/mL
- Tmax [8]: 2 to 4 h
- Tmax [9]: 8 h
